Series [1] can be described thus: DPPH radical scavenging method (antioxidant activity). The conditions noted are these: for IC50ug/ml (DPPH scavenging): 0.1 mM DPPH in ethanol, 30 minutes, absorbance 517 nm, triplicate; for IC50: IC50 ug/ml converted with molecular wt. As for the experimental part: The antioxidant activity of the newly synthesized compounds was evaluated using DPPH (2, 2-diphenyl-1-picrylhydrazyl (DPPH) assay). This assay measures the ability of a compound to neutralize the stable free radical DPPH by donating an electron or hydrogen atom. The results are illustrated in Table 2 and Fig 3. All the tests and analyses were undertaken in three replicates, and the results were averaged.
Different compounds’ free radical scavenging activity was measured by 1, 1- diphenyl-2-[…] (DPPH). In brief, a 0.1 mM solution of DPPH in ethanol was prepared. This solution (1 ml) was added to 3 ml. of the different compounds in ethanol at various concentrations (3.9, 7.8, 15.62, 31.25, 62.5, 125, 250, 500, 1000 μg/ml). Here, only those compounds solubilized in ethanol and their various concentrations were prepared by dilution. The mixture was shaken vigorously and allowed to stand at room temperature for 30 minutes. Then, absorbance was measured at 517 nm by using a spectrophotometer (UV-VIS Milton Roy). The reference standard compound used was ascorbic acid, and the experiment was done in triplicate. The IC 50 value of the sample, which is the concentration of sample required to inhibit 50% of the DPPH free radical, was calculated using the Log dose inhibition curve. The lower absorbance of the reaction mixture indicates higher free radical activity. The percent DPPH scavenging effect was calculated using the following equation: DPPH scavenging effect (%), or percent inhibition = A0 - A 1/ A0 × 100. A0 is the absorbance of the control reaction, and A1 is the absorbance in the presence of a test or standard sample [39].
(In general: Loss of DPPH colour is used to gauge radical scavenging.)

A further series concerns hERG. The conditions noted are these: similar compounds listed by Pred-hERG/LabMol, Fig 9 and Fig 10, reference not given; cited from earlier work. For orientation: Block of hERG is tested as a sign of cardiac risk.
The nature of series [2]: Hemolytic assay (HRBC membrane stabilization, anti-inflammatory activity). The settings on record: human, human red blood cells, 2% suspension, pH 7.4, 2% RBC, 1 hour 37°C; for hemolysis at 1 h, 100 ug/ml: Conc. 100 ug/ml; for hemolysis at 1 h, 200 ug/ml: Conc. 200 ug/ml; for hemolysis at 1 h, 400 ug/ml: Conc. 400 ug/ml; for hemolysis at 1 h, 600 ug/ml: Conc. 600 ug/ml; for hemolysis at 1 h, 800 ug/ml: Conc. 800 ug/ml; for hemolysis at 1 h, 1000 ug/ml: Conc. 1000 ug/ml. Format: cell-based, human. As for the experimental part:
(§1) The hemolysis essay of the synthesized compounds is summarized in Table 3 and Fig 4; the mean absorption rate of the samples, with isotonic solution Ab, and hemolysis % were calculated with a standard deviation. HRBC and membrane stabilization assay results provide valuable information about the potential anti-inflammatory effects of the newly synthesized pyrimidine carbonitrile derivatives. […] The results for the anti-inflammatory activity are in agreement and homogenous with those obtained from the antioxidant activity of the same compounds, as shown in Table 3. The interconnection between inflammation and oxidative stress plays a vital role in the induction of several chronic diseases, such as diabetes, rheumatoid arthritis, and inflammatory bowel disease—inflammation results in the release of inflammatory mediators and, subsequently, tissue damage. Oxidative stress occurs due to an imbalance between the production of the reactive oxygen species and the ability of the body to neutralize them. Several cellular mechanisms are involved in the anti-inflammatory activity of the tested compounds. […] The cellular mechanism of action was detected by suppression of myeloperoxidase and granulocyte superoxide formation. […] In addition, other mechanisms may explain the anti-inflammatory activity through the inhibitory effect on […] and lipo-oxygenase enzymes.
(§2) The hemolytic assay was performed using the method reported in [37, 40, 41]. Freshly collected human red blood cells were washed thrice with 150 mM NaCl (2500 rpm for 10 minutes). The plasma was removed, and the cells were suspended in phosphate buffer saline (pH 7.4) for 2% RBC concentration. Double-folded dilution concentrations (1000, 800, 600, 400, 200, 100, 50 μg/ml) of the compound were mixed with […] of RBC solutions, and the final reaction mixture volume was measured up to 1 ml by adding PBS. The reaction mixture was then placed in the water bath for 1 hour at 37°C. After incubation, the reaction mixture was centrifuged at 2500 rpm for 15 minutes. The supernatant was collected, and the optical density was measured at 541 nm, keeping the phosphate buffer saline blank. Deionized water was used as a positive control. The experiment was carried out in triplicate, and the mean ± SD was calculated.
(§3) Percentageofhemolysis=Absorbanceofsample−Absorbanceofblank×100/Absorbanceofpositivecontrol

Another series deals with human red blood cells. Described as above. Format: cell-based. The conditions noted are these: Conc. 100 ug/ml, 2% RBC, 1 hour 37°C. As for the experimental part:
as §1, §2, §3

Structures are written as SMILES. Values after ≈ are worked out from the molar mass of the structure shown.

A word on the IC50: it is the midpoint of a concentration-inhibition curve. A lower IC50 goes with inhibition by little substance.

On to `O=C1O[C@H]([C@@H](O)CO)C(O)=C1O` [Ascorbic acid, reference compound], for which, in series [1], the “IC50ug/ml (DPPH scavenging)” value turned out to be 4.63 µg/mL (≈ 26.3 µM) and the IC50 was determined as 26.3 µM.

In the case of `Cc1cc(C=C2SC(=Nc3ccccc3)NC2=O)c(C)n1-c1ccccc1` [CHEMBL599702], the “hERG Blocker / Non-Blocker annotation of similar compounds” value (“hERG Blocker / Non-Blocker annotation” for short) in the series with hERG is reported as “Non-Blocker”.

With `N#Cc1c(-c2ccccc2)cc(-c2ccccc2)nc1N=c1sc(C(=O)Nc2ccccc2)nn1-c1ccccc1` [CHEMBL3408390], the “hERG Blocker / Non-Blocker annotation” value in the series with hERG is listed as “Blocker”.

Turning to `N#Cc1c(-c2ccccc2)cc(-c2ccccc2)nc1N=C1SC(=C2SC(c3ccccc3)=NN2c2ccccc2)C(=O)N1c1ccccc1` [CHEMBL3408393], the “hERG Blocker / Non-Blocker annotation” value in the series with hERG is listed as “Blocker”.

As for `CC(=O)C1=NN(c2ccccc2)C(=C2SC(=Nc3nc(-c4ccccc4)cc(-c4ccccc4)c3C#N)N(c3ccccc3)C2=O)S1` [CHEMBL3408394], the “hERG Blocker / Non-Blocker annotation” value in the series with hERG is on record as “Blocker”.

Consider `CCOC(=O)C1=NN(c2ccccc2)C(=C2SC(=Nc3nc(-c4ccccc4)cc(-c4ccccc4)c3C#N)N(c3ccccc3)C2=O)S1` [CHEMBL3408395], for which the “hERG Blocker / Non-Blocker annotation” value in the series on hERG is recorded as “Blocker”.

With `N#Cc1c(-c2ccccc2)cc(-c2ccccc2)nc1N=C1SC(=C2SC(C(=O)Nc3ccccc3)=NN2c2ccccc2)C(=O)N1c1ccccc1` [CHEMBL3408396], in the series with hERG, the “hERG Blocker / Non-Blocker annotation” value is “Blocker”.

As to `N#Cc1ccc(C2NC(=S)NC(=O)C2C#N)cc1` (centres unmarked) [Compound 1, 4-(4-cyanophenyl)-6-oxo-2-thioxohexahydropyrimidine-5-carbonitrile], in series [1], the “IC50ug/ml (DPPH scavenging)” value is 25.13 µg/mL (≈ 98.1 µM) and half-maximal inhibition (IC50) required 98.1 µM. In addition, in series [2], the hemolysis at 1 h, 100 ug/ml came to 7.5%; the hemolysis at 1 h, 200 ug/ml amounted to 9.5%; the hemolysis at 1 h, 400 ug/ml came to 12%; the hemolysis at 1 h, 600 ug/ml was determined as 12.4%. In series [2], the hemolysis at 1 h, 800 ug/ml worked out at 13.2% and the hemolysis at 1 h, 1000 ug/ml was 13.9%.

With `CSC1=NC(c2ccc(C#N)cc2)C(C#N)C(=O)N1` (centres unmarked) [Compound 2, 4-(4-Cyanophenyl)-2-(methylthio)-6-oxo-1,4,5,6-tetrahydro pyrimidine-5-carbonitrile], in series [1], the “IC50ug/ml (DPPH scavenging)” value is 10.09 µg/mL (≈ 37.3 µM). In addition, the Hemolysis % entry with human red blood cells is given as “no hemolysis”. In series [2], the hemolysis at 1 h, 100 ug/ml was found to be 0%; the hemolysis at 1 h, 200 ug/ml worked out at 0.1%; the hemolysis at 1 h, 400 ug/ml came out at 0.1%; the hemolysis at 1 h, 600 ug/ml worked out at 0.3%. In series [2], this compound came in with a hemolysis at 1 h, 800 ug/ml of 0.3% and a hemolysis at 1 h, 1000 ug/ml of 2.2%.

With `N#CCSC1=NC(c2ccc(C#N)cc2)C(C#N)C(=O)N1` (centres unmarked) [Compound 3, 2-((Cyanomethyl)thio)-4-(4-cyanophenyl)-6-oxo-1,4,5,6-trtrahydropyrimidine-5-carbonitrile], in series [1], the “IC50ug/ml (DPPH scavenging)” value is 35.9 µg/mL (≈ 122 µM) and 122 µM corresponded to half-maximal inhibition (IC50). In series [2], this compound returned a hemolysis at 1 h, 100 ug/ml of 0.1%; a hemolysis at 1 h, 200 ug/ml of 0.3%; a hemolysis at 1 h, 400 ug/ml of 0.7%; a hemolysis at 1 h, 600 ug/ml of 1.2%. Besides, in series [2], the hemolysis at 1 h, 800 ug/ml was 2.3%.

`CC(=O)CSC1=NC(c2ccc(C#N)cc2)C(C#N)C(=O)N1` (centres unmarked) [Compound 4, 4-(4-Cyanophenyl)-6-oxo-2-((2-oxo-propyl)thio)-1,4,5,6-tetrahydro-pyrimidine-5-carbonitrile]: in series [1], the “IC50ug/ml (DPPH scavenging)” value amounted to 35.31 µg/mL (≈ 113 µM) and the IC50 was found to be 113 µM. Moreover, in series [2], the hemolysis at 1 h, 100 ug/ml came out at 1.3%; the hemolysis at 1 h, 200 ug/ml turned out to be 1.8%; the hemolysis at 1 h, 400 ug/ml was determined as 3.6%; the hemolysis at 1 h, 600 ug/ml was 5.9%. Also, in series [2], the hemolysis at 1 h, 800 ug/ml was determined as 7.8% and the hemolysis at 1 h, 1000 ug/ml is 9.3%.

With `N#Cc1ccc(C2N=C3SCC=C(N)N3C(=O)C2C#N)cc1` (centres unmarked) [Compound 5, 4-Amino-8-(4-cyanophenyl)-6-oxo-7,8-dihydro-2H,6H-pyrimido[2,1-b][1,3]thiazine-7-carbonitrile], in series [1], the “IC50ug/ml (DPPH scavenging)” value amounted to 5.62 µg/mL (≈ 18.2 µM) and the IC50 turned out to be 18.2 µM. In series [2], the hemolysis at 1 h, 100 ug/ml was found to be 0.2%; the hemolysis at 1 h, 200 ug/ml turned out to be 0.4%; the hemolysis at 1 h, 400 ug/ml worked out at 1.4%; the hemolysis at 1 h, 600 ug/ml came out at 5.5%. Besides, in series [2], the hemolysis at 1 h, 800 ug/ml was 5.9% and the hemolysis at 1 h, 1000 ug/ml amounted to 7%.

Take `N#Cc1ccc(C2N=C3SCC(=O)N3C(=O)C2C#N)cc1` (centres unmarked) [Compound 6, 7-(4-Cyanophenyl)-3,5-dioxo-2,3,6,7-tetrahydro-5H-thiazolo[3,2-a]pyrimidine-6-carbonitrile]: the “IC50ug/ml (DPPH scavenging)” value in series [1] was 46.69 µg/mL (≈ 158 µM). Also, in series [2], the hemolysis at 1 h, 100 ug/ml came out at 2.1%; the hemolysis at 1 h, 200 ug/ml was found to be 3.1%; the hemolysis at 1 h, 400 ug/ml came out at 4%; the hemolysis at 1 h, 600 ug/ml turned out to be 4.6%. Also, in series [2], the hemolysis at 1 h, 800 ug/ml amounted to 12.8% and the hemolysis at 1 h, 1000 ug/ml is 14.3%.

For `N#Cc1ccc(C2N=C(Nc3nc4ccccc4s3)NC(=O)C2C#N)cc1` (centres unmarked) [Compound 8, 2-(Benzo[d]thiazol-2-ylamino)-4-(4-cyanophenyl)-6-oxo-1,4,5,6-tetrahydro pyrimidine-5-carbonitrile], in series [1], the “IC50ug/ml (DPPH scavenging)” value was 6.21 µg/mL (≈ 16.7 µM) and the midpoint of inhibition, the IC50, lay at 16.7 µM. Also, the Hemolysis % entry in the series with human red blood cells is “no hemolysis”. In series [2], this compound gave a hemolysis at 1 h, 100 ug/ml of 0%; a hemolysis at 1 h, 200 ug/ml of 0.1%; a hemolysis at 1 h, 400 ug/ml of 0.9%; a hemolysis at 1 h, 600 ug/ml of 1.3%. In series [2], this compound had a hemolysis at 1 h, 800 ug/ml of 3% and a hemolysis at 1 h, 1000 ug/ml of 3.7%.

Consider `N#Cc1ccc(C2N=C(NNc3ccccc3)NC(=O)C2C#N)cc1` (centres unmarked) [Compound 9, 4-(4-Cyanophenyl)-6-oxo-2-(2-phenylhydrazine)-1,4,5,6-tetrahydro pyrimidine-5-carbonitrile], for which, in series [1], the “IC50ug/ml (DPPH scavenging)” value came to 212.28 µg/mL (≈ 643 µM) and the IC50 amounted to 643 µM. Besides, in series [2], the hemolysis at 1 h, 100 ug/ml is 2.9%; the hemolysis at 1 h, 200 ug/ml is 4.3%; the hemolysis at 1 h, 400 ug/ml was 5%; the hemolysis at 1 h, 600 ug/ml worked out at 9%. For the same compound, in series [2], the hemolysis at 1 h, 800 ug/ml came to 10% and the hemolysis at 1 h, 1000 ug/ml worked out at 14.4%.

Source of the values: PMC12121771, “Innovation of eco-friendly TiO2 nano catalyst for new pyrimidine carbonitiriles candidates, assessed for significant antioxidant activity, anti-inflammatory effects, and by insilico studies” (PLOS One, 2025).
